In patent US12083109B2, “Neurokinin antagonists and uses thereof” (California Institute of Technology, priority 2017, dated 2024):
“Also recorded” adds a separate entry of the source.

Columns and labels:
Nk3R [1] = molecular target: T1, Nk3R (Mus musculus, UniProt P47937); assay: Looming disk assay (freezing, tail rattles, latency to orient), osanetant; format: in vivo; set-up: from tissue; host or cells: Living mice (wild-type C57Bl6/N males, Charles River); details: for SIS-induced increased tail rattling (looming disk assay) / SIS-induced persistent (post) freezing to looming disk: SIS mice; for SIS-induced increased tail rattling (looming disk assay): acute systemic osanetant; for acute (and thereby persistent) freezing to innate threatening stimulus (looming disk): osanetant injection into CeA
T1 sequence (P47937 1-452): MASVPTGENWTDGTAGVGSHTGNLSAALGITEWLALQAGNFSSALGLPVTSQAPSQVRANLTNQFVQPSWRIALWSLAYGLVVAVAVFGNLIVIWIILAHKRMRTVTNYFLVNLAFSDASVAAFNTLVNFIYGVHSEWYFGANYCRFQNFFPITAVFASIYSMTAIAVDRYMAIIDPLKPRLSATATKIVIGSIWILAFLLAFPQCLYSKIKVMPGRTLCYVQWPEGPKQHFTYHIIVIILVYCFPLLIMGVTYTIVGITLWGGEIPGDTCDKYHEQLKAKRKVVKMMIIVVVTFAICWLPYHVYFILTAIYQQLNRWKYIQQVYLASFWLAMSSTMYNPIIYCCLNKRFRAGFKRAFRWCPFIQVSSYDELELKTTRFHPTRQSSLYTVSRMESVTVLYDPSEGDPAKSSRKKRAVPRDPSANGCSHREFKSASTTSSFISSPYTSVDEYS
Description: Freezing behavior to presentation of an overhead looming disk proceeded as previously described (Kunwar et al., 2015; Yilmaz and Meister, 2013; incorporated by reference in their entirety). Briefly, mice were transported to a novel behavioral testing room. After 5 minutes of acclimation, mice were placed inside a novel, custom-built open top Plexiglas arena (48×48×30 cm) covered with a flat screen monitor placed directly above and with illumination provided by infrared LEDs (Marubeni). Mice were given a 5 minute baseline period in the arena, after which entry into the center of the arena triggered presentation of a single, 10 second overhead looming disk stimulus (comprised of a single looming disk presentation 0.5 seconds in duration, which was repeated 10 times with an inter-stimulus interval of 0.5 seconds). The stimulus was controlled by custom MATLAB code (M. Meister, Caltech) run on a dedicated computer in an adjacent room. Mice remained in the area for an additional 2 minutes before being transported back. Behavior was recorded using a video recorder attached to a laptop equipped with video capture software (Corel VideoStudio Pro). Acute freezing behavior to the looming disk (“during”) as well as in the 30 seconds following the last disk (“post”) were scored manually (Behavior Annotator, MATLAB) by an observer blind to environmental conditions.
(§1) Mice were administered the Nk3R antagonist osanetant (Axon Medchem, Axon 1533) either systemically or intra-brain region. Osanctant was dissolved in saline with 0.1% Tween 20 (vehicle). For systemic administration mice received an intraperitoneal (i.p.) injection (5 mg/kg) 20 minutes prior to behavioral testing. For microinfusions, guide cannulas were removed from mice and replaced with injector cannulas (Plastics One), which protruded 0.5 mm from the tip of the guide cannula. Injectors were attached to 5 μl Hamilton syringes with PE tubing (Plastics One) and mounted on a microinfusion pump (Harvard Apparatus) for controlled infusion of osanetant (0.3 μl vehicle with 375 ng dose per site injected over 6 minutes). For experiments using systemic administration of clozapine-N-oxide (CNO), CNO (Enzo Life Sciences-Biomol, BML-NS105-0005) was dissolved in saline (9 g/L NaCl) and injected (i.p.) at 5 mg/kg for hM4DREADD silencing or 2 mg/kg for hM3DREADD activation 20 minutes prior to behavioral testing. CNO was also administered chronically in drinking water (0.5 mg CNO/100 ml water).

Nk3R [2] = molecular target: T1, Nk3R; assay: Social interaction assay, osanetant; format: in vivo; set-up: from tissue; host or cells: Living mice (wild-type C57Bl6/N males, Charles River); details: SIS mice; acute systemic osanetant; listed as Osanetant
Description: as §1

SIS-induced increased tail rattling (looming disk assay) (Nk3R [1]): attenuated
SIS-induced increased tail rattling (looming disk assay) (Nk3R [1]; listed as Osanetant): blocked
SIS-induced persistent (post) freezing to looming disk (Nk3R [1]; osanetant 5 mg/kg i.p. 20 min before test): blocked
SIS-induced persistent (post) freezing to looming disk (Nk3R [1]; osanetant 5 mg/kg i.p. 20 min before test, listed as Osanetant): attenuated
freezing during presentation of looming disk (acute) (Nk3R [1]; osanetant 5 mg/kg i.p. 20 min before test, between groups): no significant differences
persistent freezing to looming disk (Nk3R [1]; osanetant daily during two-week isolation, tested off-drug): prevented
acute (and thereby persistent) freezing to innate threatening stimulus (looming disk) (Nk3R [1]): reduced
acute (and thereby persistent) freezing to innate threatening stimulus (looming disk) (Nk3R [1]; listed as Osanetant): selectively blocked
persistent responses to looming stimulus (Nk3R [1]; osanetant microinfusion into DMH): had no effect
SIS-induced persistent freezing to looming disk (Nk3R [1]; osanetant microinfusion into dBNSTa, 375 ng per site, 20 min before test): selectively inhibited
SIS-induced persistent freezing to looming disk (Nk3R [1]; osanetant microinfusion into dBNSTa, 375 ng per site, 20 min before test, listed as Osanetant): selectively blocked
SIS-induced decreased social interaction (time in social zone) (Nk3R [2]): blocked; also recorded: attenuated
SMILES: CC(=O)N(C)C1(c2ccccc2)CCN(CCC[C@]2(c3ccc(Cl)c(Cl)c3)CCCN(C(=O)c3ccccc3)C2)CC1 [osanetant, N-(1-{3-[(3R)-1-benzoyl-3-(3,4-dichlorophenyl)piperidin-3-yl]propyl}-4-phenylpiperidin-4-yl)-N-methylacetamide]
SIS-induced persistent freezing to looming disk (Nk3R [1]; osanetant microinfusion into ACC or striatum): failed to yield significant effects; also recorded: No significant effects
